Drawing on patent US7368454B2, “(3,4-dihydro-quinazolin-2-yl)-aryl-amines” (Hoffmann-La Roche Inc., priority 2005, dated 2008), this text covers Ki for nine compounds.

The experiment has as its target T1, recombinant human 5-HT5A receptor (Homo sapiens, UniProt P47898).
T1 construct: expressed in transfected cells; host or cells: Human Embryonic Kidney-EBNA (HEK-EBNA) cells, transient expression, membranes
Put plainly: [3H]LSD radioligand binding assay. As to conditions: [3H]LSD approx. 1 nM; membranes from HEK-EBNA cells transiently expressing 5-HT5A; SPA; Ki from IC50 by Cheng-Prussoff equation. As to the method: A [^3H]LSD radioligand binding assay was used to determine the affinity of the compounds for the recombinant human 5-HT5A receptor, in membranes from transiently (cDNA) expressed 5-HT 5A receptors in Human Embryonic Kidney-EBNA (HEK-EBNA) cells. Assay buffer consisted of Tris (50 mM) buffer containing 1 mM EGTA, 10 mM MgCl2 (pH 7.4) and 10 μM pargyline. The binding assay was carried out in 96-well-plates in the presence of [^3H]LSD (approximately 1 nM), approximately 2 μg/well of membrane protein, and 0.5 mg of Ysi-poly-1-lysine SPA beads in a final volume of 200 μl of buffer. Non-specific binding was defined using methiothepin 2 μM. Compounds were tested at 10 concentrations. All assays were conducted in duplicate and repeated at least two times. Assay plates were incubated for 120 min at room temperature before centrifugation. Bound ligand was determined using a Packard Topcount scintillation counter. IC50 values were calculated using a non-linear curve fitting program and Ki values calculated using the Cheng-Prussoff equation.

T1 sequence (P47898 whole entry): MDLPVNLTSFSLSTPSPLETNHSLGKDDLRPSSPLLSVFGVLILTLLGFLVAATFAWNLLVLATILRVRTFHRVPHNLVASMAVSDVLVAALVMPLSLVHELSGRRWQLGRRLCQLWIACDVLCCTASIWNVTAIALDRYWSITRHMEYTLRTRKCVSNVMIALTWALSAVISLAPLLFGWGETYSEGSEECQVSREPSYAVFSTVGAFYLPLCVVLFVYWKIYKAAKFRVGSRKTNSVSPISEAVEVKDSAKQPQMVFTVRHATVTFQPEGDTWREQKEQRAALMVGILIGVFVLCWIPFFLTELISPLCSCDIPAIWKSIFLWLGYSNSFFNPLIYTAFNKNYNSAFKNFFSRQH

As to `Cc1cccc2c1CNC(Nc1cccc(C(F)(F)F)c1)=N2` [Example 1, (5-Methyl-3,4-dihydro-quinazolin-2-yl)-(3-trifluoromethyl-phenyl)-amine], the Ki was found to be 85 nM. The value for `FC(F)(F)c1cccc(NC2=Nc3ccccc3CN2)c1` [Example 2, (3,4-Dihydro-quinazolin-2-yl)-(3-trifluoromethyl-phenyl)-amine] was 91 nM. Turning to `FC(F)(F)c1cccc(NC2=Nc3cccc(Cl)c3CN2)c1` [Example 3, (5-Chloro-3,4-dihydro-quinazolin-2-yl)-(3-trifluoromethyl-phenyl)-amine], the Ki came to 118 nM.

Turning to `Cc1cccc(NC2=Nc3ccccc3CN2)c1` [Example 4, (3,4-Dihydro-quinazolin-2-yl)-m-tolyl-amine], the Ki turned out to be 143 nM. Under `c1ccc2c(c1)CNC(Nc1ccc3c(c1)CCC3)=N2` [Example 5, (3,4-Dihydro-quinazolin-2-yl)-indan-5-yl-amine] stands 149 nM; under `c1ccc2c(c1)CNC(Nc1cccc3ccccc13)=N2` [Example 6, (3,4-Dihydro-quinazolin-2-yl)-naphthalen-1-yl-amine], 155 nM.

With `Clc1cccc(NC2=Nc3ccccc3CN2)c1` [Example 10, (3-Chloro-phenyl)-(3,4-dihydro-quinazolin-2-yl)-amine], the Ki turned out to be 300 nM. For `Clc1ccc(NC2=Nc3ccccc3CN2)cc1` [Example 15, (4-Chloro-phenyl)-(3,4-dihydro-quinazolin-2-yl)-amine], the Ki came to 990 nM. Under `Fc1ccccc1NC1=Nc2ccccc2CN1` [Example 16, (3,4-Dihydro-quinazolin-2-yl)-(2-fluoro-phenyl)-amine; hydriodide] stands 1000 nM.
